According to ChEMBL document CHEMBL1201862, “PubChem BioAssay data set” (2004):
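Values below derive from 48-hour exposures of cells grown in 96-well plates, with endpoints linearly interpolated between the two concentrations bracketing the appropriate inhibition level. GI50 marks 50% less growth.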 Active and inactive are the calls of the source. No stated cut-off is given here; in the data, active = GI50 up to about 1.1 µM and inactive = higher.

How the values were obtained:
Experiment in all cases: NCI-60 cell line screen, 48 h
OVCAR-5 = tested on: OVCAR-5
PC-3 = tested on: PC-3
UO-31 = tested on: UO-31
OVCAR-8 = tested on: OVCAR-8
SF-539 = tested on: SF-539
U-251 = tested on: U-251
MOLT-4 = tested on: MOLT-4
OVCAR-4 = tested on: OVCAR-4
HL-60 = tested on: HL-60
HCT-116 = tested on: HCT-116
SNB-75 = tested on: SNB-75
TK-10 = tested on: TK-10
HT-29 = tested on: HT-29
SK-MEL-2 = tested on: SK-MEL-2
ACHN = tested on: ACHN
SW-620 = tested on: SW-620
M14 = tested on: M14
Malme-3M = tested on: Malme-3M
RPMI-8226 = tested on: RPMI-8226
NCI-H522 = tested on: NCI-H522

## O=C1Oc2ccccc2C(=O)/C1=C/N1C(=O)N/C(=C\c2cccc(O)c2)C1=O
OVCAR-5
  GI50: > 100 µM (inactive)
PC-3
  GI50: 54.3 µM (inactive)
UO-31
  GI50: 29.5 µM (inactive)
OVCAR-8
  GI50: 33.2 µM (inactive)
SF-539
  GI50: 99.5 µM (inactive)
U-251
  GI50: > 100 µM (inactive)
MOLT-4
  GI50: 86.5 µM (inactive)
OVCAR-4
  GI50: 85.9 µM (inactive)
HL-60
  GI50: 6.87 µM (inactive)
HCT-116
  GI50: 76 µM (inactive)
SNB-75
  GI50: 8.36 µM (inactive)
TK-10
  GI50: 46.1 µM (inactive)
HT-29
  GI50: > 100 µM (inactive)
SK-MEL-2
  GI50: 46.2 µM (inactive)
ACHN
  GI50: 20.7 µM (inactive)
SW-620
  GI50: 83.4 µM (inactive)
M14
  GI50: 83.8 µM (inactive)

## N#Cc1nc(Cc2ccccc2)oc1N
OVCAR-5
  GI50: > 100 µM (inactive)
PC-3
  GI50: > 100 µM (inactive)
UO-31
  GI50: > 100 µM (inactive)
SF-539
  GI50: > 100 µM (inactive)
U-251
  GI50: > 100 µM (inactive)
MOLT-4
  GI50: > 100 µM (inactive)
OVCAR-4
  GI50: > 100 µM (inactive)
HCT-116
  GI50: > 100 µM (inactive)
TK-10
  GI50: > 100 µM (inactive)
Malme-3M
  GI50: > 100 µM (inactive)
HT-29
  GI50: > 100 µM (inactive)
SK-MEL-2
  GI50: > 100 µM (inactive)
ACHN
  GI50: > 100 µM (inactive)
RPMI-8226
  GI50: 16.9 µM (inactive)
SW-620
  GI50: > 100 µM (inactive)
M14
  GI50: > 100 µM (inactive)

## CC1(C)C2CC(=O)C1(C)C(O)C2Br (stereo not given)
OVCAR-5
  GI50: > 100 µM (inactive)
PC-3
  GI50: > 100 µM (inactive)
UO-31
  GI50: > 100 µM (inactive)
OVCAR-8
  GI50: > 100 µM (inactive)
SF-539
  GI50: > 100 µM (inactive)
U-251
  GI50: > 100 µM (inactive)
MOLT-4
  GI50: > 100 µM (inactive)
HL-60
  GI50: > 100 µM (inactive)
HCT-116
  GI50: > 100 µM (inactive)
TK-10
  GI50: > 100 µM (inactive)
Malme-3M
  GI50: > 100 µM (inactive)
HT-29
  GI50: > 100 µM (inactive)
SK-MEL-2
  GI50: > 100 µM (inactive)
ACHN
  GI50: > 100 µM (inactive)
SW-620
  GI50: > 100 µM (inactive)
M14
  GI50: > 100 µM (inactive)

## Cc1cc(OP2(=O)NCc3ncccc3O2)ccc1Cl (stereo not given)
OVCAR-5
  GI50: > 100 µM (inactive)
PC-3
  GI50: > 100 µM (inactive)
UO-31
  GI50: > 100 µM (inactive)
OVCAR-8
  GI50: > 100 µM (inactive)
SF-539
  GI50: > 100 µM (inactive)
U-251
  GI50: > 100 µM (inactive)
MOLT-4
  GI50: > 100 µM (inactive)
OVCAR-4
  GI50: > 100 µM (inactive)
HCT-116
  GI50: > 100 µM (inactive)
SNB-75
  GI50: > 100 µM (inactive)
SK-MEL-2
  GI50: > 100 µM (inactive)
ACHN
  GI50: > 100 µM (inactive)
RPMI-8226
  GI50: > 100 µM (inactive)
SW-620
  GI50: > 100 µM (inactive)
M14
  GI50: > 100 µM (inactive)

## Cc1ccc(NC(=O)CC2C(=O)Nc3ccccc3S2(=O)=O)c(C)c1 (stereo not given)
OVCAR-5
  GI50: 24.7 µM (inactive)
UO-31
  GI50: 18.8 µM (inactive)
OVCAR-8
  GI50: 18.2 µM (inactive)
SF-539
  GI50: 15.5 µM (inactive)
NCI-H522
  GI50: 10.9 µM (inactive)
U-251
  GI50: 12.7 µM (inactive)
MOLT-4
  GI50: 7.33 µM (inactive)
OVCAR-4
  GI50: 18.7 µM (inactive)
HL-60
  GI50: 2.77 µM (inactive)
HCT-116
  GI50: 12.2 µM (inactive)
SNB-75
  GI50: 15.2 µM (inactive)
TK-10
  GI50: 25.9 µM (inactive)
Malme-3M
  GI50: 12.9 µM (inactive)
HT-29
  GI50: 13.5 µM (inactive)
SK-MEL-2
  GI50: 29 µM (inactive)
ACHN
  GI50: 18 µM (inactive)
RPMI-8226
  GI50: 15.2 µM (inactive)
SW-620
  GI50: 5.21 µM (inactive)
M14
  GI50: 11.2 µM (inactive)

## CCCCCCCCCCCC[C@@H](O)[C@H]1CC[C@H]([C@H]2CC[C@H]([C@H](O)CC[C@H](O)CCCCCCCC3=C[C@H](C)OC3=O)O2)O1
OVCAR-5
  GI50: 1.69 µM (inactive)
PC-3
  GI50: 1.55 µM (inactive)
UO-31
  GI50: 0.562 µM (active)
OVCAR-8
  GI50: 1.82 µM (inactive)
SF-539
  GI50: 1.68 µM (inactive)
U-251
  GI50: 2.13 µM (inactive)
MOLT-4
  GI50: 1.84 µM (inactive)
HL-60
  GI50: 1.26 µM (inactive)
HCT-116
  GI50: 1.23 µM (inactive)
SNB-75
  GI50: 1.75 µM (inactive)
TK-10
  GI50: 1.21 µM (inactive)
HT-29
  GI50: 1.76 µM (inactive)
SK-MEL-2
  GI50: 1.52 µM (inactive)
ACHN
  GI50: 0.0933 µM (active)
RPMI-8226
  GI50: 1.2 µM (inactive)
SW-620
  GI50: 1.94 µM (inactive)
M14
  GI50: 1.64 µM (inactive)
